Active and inactive are the calls of the source. The rule behind the calls is not given here.
How the values were obtained:
[1] = Cmax in Sprague-Dawley rat at 5 mg/kg, iv measured upto 48 hrs by LC-MS/MS analysis; type: ADME, organism-based; details: in vivo
[2] = system: MOLM-13; assay: Antiproliferative activity against human MOLM-13 cells assessed as inhibition of cell growth measured after 72 hrs by Celltiter-glo luminescent cell viability assay; type: functional, cell-based; details: MOLM-13, 72 h
[3] = system: EBC-1; assay: Antiproliferative activity against human EBC-1 cells assessed as inhibition of cell growth measured after 72 hrs by Celltiter-glo luminescent cell viability assay; type: functional, cell-based; details: EBC-1, 72 h
[4] = Antiproliferative activity against human PBMC cells assessed as inhibition of cell growth measured after 72 hrs by Celltiter-glo luminescent cell viability assay; type: toxicity, cell-based
[5] = target: Receptor-type tyrosine-protein kinase FLT3 (Homo sapiens) (UniProt P36888); assay: Inhibition of FLT3 phosphorylation in human MOLM-13 cells incubated for 2 hrs by Western blot analysis; type: cell-based; details: dose 0.04-5 µM
[6] = system: MOLM-13; assay: Induction of cell cycle arrest in human MOLM-13 cells assessed as accumulation of cells at S phase at 3 uM measured after 48 hrs by PI staining based flow cytometry analysis (reference value: 45.3%); type: functional
[7] = system: MOLM-13; assay: Induction of cell cycle arrest in human MOLM-13 cells assessed as accumulation of cells at S phase at 1 uM measured after 48 hrs by PI staining based flow cytometry analysis (reference value: 45.3%); type: functional
[8] = system: MOLM-13; assay: Effect on FLT3 level in human MOLM-13 cells at 0.04 to 5 nM measured after 2 hrs by Western blot analysis; type: functional, cell-based; details: dose 0.04-5 nM
[9] = system: MOLM-13; assay: Induction of cell cycle arrest in human MOLM-13 cells assessed as accumulation of cells at G1 phase at 0.3 uM measured after 48 hrs by PI staining based flow cytometry analysis (reference value: 42.8%); type: functional
[10] = system: MOLM-13; assay: Induction of cell cycle arrest in human MOLM-13 cells assessed as accumulation of cells at G2 phase at 0.3 uM measured after 48 hrs by PI staining based flow cytometry analysis (reference value: 12.5%); type: functional
[11] = system: MOLM-13; assay: Induction of apoptosis in human MOLM-13 cells assessed as viable cells at 3 uM measured after 48 hrs by annexin-V and PI staining based flow cytometry analysis (reference value: 88.7%); type: functional; details: read-out: Activity
[12] = system: MOLM-13; assay: Induction of apoptosis in human MOLM-13 cells assessed as late apoptotic cells at 1 uM measured after 48 hrs by annexin-V and PI staining based flow cytometry analysis (reference value: 2.28%); type: functional
[13] = system: MOLM-13; assay: Induction of apoptosis in human MOLM-13 cells assessed as necrotic cells at 1 uM measured after 48 hrs by annexin-V and PI staining based flow cytometry analysis (reference value: 0.087%); type: functional
[14] = system: MOLM-13; assay: Induction of apoptosis in human MOLM-13 cells assessed as necrotic cells at 3 uM measured after 48 hrs by annexin-V and PI staining based flow cytometry analysis (reference value: 0.087%); type: functional
[15] = AUC (0 to t) in Sprague-Dawley rat at 5 mg/kg, iv measured upto 48 hrs by LC-MS/MS analysis; type: ADME, organism-based; details: in vivo
[16] = system: MOLM-13; assay: Antitumor activity against human MOLM-13 cells xenografted in female NSG mouse model assessed as delay in tumor growth at 20 to 40 mg/kg/day, po measured after 21 days; type: functional, organism-based; details: dose 20-40 mg/kg/day, time 21.0 day
[17] = Toxicity in female NSG mouse assessed as effect on liver at 20 to 40 mg/kg, po measured after 21 days by H and E staining based analysis; type: organism-based; details: in vivo, 504 h, dose 20-40 mg/kg, time 21 day
[18] = Toxicity in female NSG mouse assessed as effect on lung at 20 to 40 mg/kg, po measured after 21 days by H and E staining based analysis; type: organism-based; details: in vivo, 504 h, dose 20-40 mg/kg, time 21 day
[19] = target: T1, Vascular endothelial growth factor receptor 1 (Homo sapiens, UniProt P17948); assay: Inhibition of human FLT assessed as residual activity at 1 uM by Eurofins kinase assay relative to control
[20] = target: T2, Vascular endothelial growth factor receptor 3 (Homo sapiens, UniProt P35916); assay: Inhibition of human FLT4 assessed as residual activity at 1 uM by Eurofins kinase assay relative to control
[21] = target: Macrophage colony-stimulating factor 1 receptor (Homo sapiens, UniProt P07333); assay: Inhibition of human FMS assessed as residual activity at 1 uM by Eurofins kinase assay relative to control
[22] = target: Tyrosine-protein kinase ABL1 (Homo sapiens) (UniProt P00519); assay: Inhibition of human ABL1 at 1 uM by Eurofins kinase assay
[23] = target: Aurora kinase B (Homo sapiens) (UniProt Q96GD4); assay: Inhibition of human AuroraB at 1 uM by Eurofins kinase assay
[24] = system: Mast/stem cell growth factor receptor Kit (Homo sapiens), P10721 [V654A]; assay: Inhibition of human c-kit V654A mutant at 1 uM by Eurofins kinase assay
[25] = target: Cyclin-dependent kinase 2/cyclin A (Homo sapiens) (UniProt P24941+P20248+P78396); assay: Inhibition of human CDK2/cyclinA at 1 uM by Eurofins kinase assay; type: protein-complex assay
[26] = target: Fibroblast growth factor receptor 1 (Homo sapiens) (UniProt P11362); assay: Inhibition of human FGFR1 at 1 uM by Eurofins kinase assay
[27] = target: Fibroblast growth factor receptor 2 (Homo sapiens) (UniProt P21802); assay: Inhibition of human FGFR2 at 1 uM by Eurofins kinase assay
[28] = target: Receptor-type tyrosine-protein kinase FLT3 (Homo sapiens) (UniProt P36888); assay: Inhibition of human FLT3 at 1 uM by Eurofins kinase assay
[29] = system: Receptor-type tyrosine-protein kinase FLT3 (Homo sapiens), P36888 [D835Y]; assay: Inhibition of human FLT3 D835Y mutant at 1 uM by Eurofins kinase assay
[30] = target: Inhibitor of nuclear factor kappa-B kinase subunit beta (Homo sapiens) (UniProt O14920); assay: Inhibition of human IKKB at 1 uM by Eurofins kinase assay
[31] = target: Tyrosine-protein kinase JAK2 (Homo sapiens) (UniProt O60674); assay: Inhibition of human JAK2 at 1 uM by Eurofins kinase assay
[32] = target: Mitogen-activated protein kinase 1 (Homo sapiens) (UniProt P28482); assay: Inhibition of human MAPK1 at 1 uM by Eurofins kinase assay
[33] = target: Receptor-interacting serine/threonine-protein kinase 1 (Homo sapiens) (UniProt Q13546); assay: Inhibition of human RIPK1 at 1 uM by Eurofins kinase assay
[34] = target: Proto-oncogene tyrosine-protein kinase ROS (Homo sapiens) (UniProt P08922); assay: Inhibition of human Ros at 1 uM by Eurofins kinase assay
[35] = target: High affinity nerve growth factor receptor (Homo sapiens) (UniProt P04629); assay: Inhibition of human TrkA at 1 uM by Eurofins kinase assay
[36] = target: Vascular endothelial growth factor receptor 2 (Homo sapiens, UniProt P35968); assay: Inhibition of VEGFR2 (unknown origin) preincubated for 10 mins followed by addition of peptide solution by caliper mobility shift assay
[37] = target: T1, Vascular endothelial growth factor receptor 1; assay: Inhibition of FLT (unknown origin) preincubated for 10 mins followed by addition of peptide solution by caliper mobility shift assay
[38] = target: T2, Vascular endothelial growth factor receptor 3; assay: Inhibition of FLT4 (unknown origin) preincubated for 10 mins followed by addition of peptide solution by caliper mobility shift assay

T2 sequence (P35916 whole entry): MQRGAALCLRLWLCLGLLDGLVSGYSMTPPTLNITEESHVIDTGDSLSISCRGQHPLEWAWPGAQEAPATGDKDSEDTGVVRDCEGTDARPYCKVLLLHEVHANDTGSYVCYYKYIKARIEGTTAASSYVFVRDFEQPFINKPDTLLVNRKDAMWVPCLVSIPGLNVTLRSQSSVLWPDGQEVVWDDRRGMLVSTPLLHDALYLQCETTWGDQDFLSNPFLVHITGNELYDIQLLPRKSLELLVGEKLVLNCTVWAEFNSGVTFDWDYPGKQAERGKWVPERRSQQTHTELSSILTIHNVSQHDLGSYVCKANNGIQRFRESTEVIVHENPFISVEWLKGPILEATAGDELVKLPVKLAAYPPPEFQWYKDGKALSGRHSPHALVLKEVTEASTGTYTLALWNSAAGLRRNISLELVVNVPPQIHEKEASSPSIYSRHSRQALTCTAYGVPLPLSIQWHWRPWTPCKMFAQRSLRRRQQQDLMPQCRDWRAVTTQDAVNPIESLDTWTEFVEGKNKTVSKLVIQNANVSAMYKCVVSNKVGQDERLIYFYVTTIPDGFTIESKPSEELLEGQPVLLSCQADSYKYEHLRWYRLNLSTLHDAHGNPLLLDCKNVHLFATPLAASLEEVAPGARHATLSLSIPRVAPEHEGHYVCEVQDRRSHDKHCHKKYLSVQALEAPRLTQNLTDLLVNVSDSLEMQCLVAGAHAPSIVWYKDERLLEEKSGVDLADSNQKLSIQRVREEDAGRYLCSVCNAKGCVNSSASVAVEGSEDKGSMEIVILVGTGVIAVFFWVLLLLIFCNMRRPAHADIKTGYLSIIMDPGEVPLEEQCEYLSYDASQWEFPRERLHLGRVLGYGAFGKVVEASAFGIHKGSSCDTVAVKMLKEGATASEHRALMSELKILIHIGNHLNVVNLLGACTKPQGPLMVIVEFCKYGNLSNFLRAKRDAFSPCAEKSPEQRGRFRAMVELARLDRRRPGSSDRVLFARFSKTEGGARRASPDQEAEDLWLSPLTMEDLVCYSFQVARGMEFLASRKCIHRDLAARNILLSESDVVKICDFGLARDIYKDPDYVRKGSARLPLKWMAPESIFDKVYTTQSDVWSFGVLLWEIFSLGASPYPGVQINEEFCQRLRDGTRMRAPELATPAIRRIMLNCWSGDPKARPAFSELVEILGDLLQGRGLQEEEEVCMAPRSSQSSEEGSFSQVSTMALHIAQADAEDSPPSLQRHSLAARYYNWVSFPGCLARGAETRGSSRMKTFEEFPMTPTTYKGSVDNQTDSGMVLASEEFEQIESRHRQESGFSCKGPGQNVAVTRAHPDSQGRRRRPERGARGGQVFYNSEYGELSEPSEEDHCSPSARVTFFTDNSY
T1 sequence (P17948 whole entry): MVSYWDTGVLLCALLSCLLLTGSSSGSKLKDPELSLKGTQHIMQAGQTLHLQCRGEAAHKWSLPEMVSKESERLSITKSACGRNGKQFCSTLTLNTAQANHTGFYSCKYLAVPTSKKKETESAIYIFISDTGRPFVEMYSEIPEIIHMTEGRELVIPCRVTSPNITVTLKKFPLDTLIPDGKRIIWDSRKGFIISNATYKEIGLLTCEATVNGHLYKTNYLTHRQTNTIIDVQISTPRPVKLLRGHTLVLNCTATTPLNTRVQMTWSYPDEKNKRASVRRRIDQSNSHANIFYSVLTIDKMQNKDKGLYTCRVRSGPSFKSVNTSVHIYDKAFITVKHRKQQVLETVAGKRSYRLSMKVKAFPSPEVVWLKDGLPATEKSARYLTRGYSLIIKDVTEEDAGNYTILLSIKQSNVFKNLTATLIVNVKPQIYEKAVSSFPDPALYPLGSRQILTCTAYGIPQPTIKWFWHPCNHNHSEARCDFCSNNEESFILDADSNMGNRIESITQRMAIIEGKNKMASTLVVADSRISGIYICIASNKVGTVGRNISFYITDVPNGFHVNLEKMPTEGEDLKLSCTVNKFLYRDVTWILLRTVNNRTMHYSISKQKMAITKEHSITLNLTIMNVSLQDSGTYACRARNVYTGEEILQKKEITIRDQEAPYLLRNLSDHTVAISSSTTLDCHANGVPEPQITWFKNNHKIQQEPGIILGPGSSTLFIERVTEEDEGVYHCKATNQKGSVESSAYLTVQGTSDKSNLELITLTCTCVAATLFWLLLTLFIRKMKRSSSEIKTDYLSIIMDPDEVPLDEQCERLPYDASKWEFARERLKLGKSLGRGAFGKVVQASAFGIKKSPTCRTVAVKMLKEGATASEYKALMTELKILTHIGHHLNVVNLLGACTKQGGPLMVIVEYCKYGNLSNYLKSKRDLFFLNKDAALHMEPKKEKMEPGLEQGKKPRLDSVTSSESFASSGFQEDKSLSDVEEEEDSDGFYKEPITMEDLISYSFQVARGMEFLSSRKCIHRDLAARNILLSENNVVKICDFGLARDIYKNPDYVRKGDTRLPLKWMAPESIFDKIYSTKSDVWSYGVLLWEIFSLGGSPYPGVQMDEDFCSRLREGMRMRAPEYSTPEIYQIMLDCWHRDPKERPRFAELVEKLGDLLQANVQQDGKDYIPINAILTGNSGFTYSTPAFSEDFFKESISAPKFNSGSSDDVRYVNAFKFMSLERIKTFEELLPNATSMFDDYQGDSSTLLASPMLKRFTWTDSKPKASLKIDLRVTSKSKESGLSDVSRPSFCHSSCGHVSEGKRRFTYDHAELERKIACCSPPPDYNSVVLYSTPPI
High affinity nerve growth factor receptor (Homo sapiens), sequence (P04629 33-796 limits assumed): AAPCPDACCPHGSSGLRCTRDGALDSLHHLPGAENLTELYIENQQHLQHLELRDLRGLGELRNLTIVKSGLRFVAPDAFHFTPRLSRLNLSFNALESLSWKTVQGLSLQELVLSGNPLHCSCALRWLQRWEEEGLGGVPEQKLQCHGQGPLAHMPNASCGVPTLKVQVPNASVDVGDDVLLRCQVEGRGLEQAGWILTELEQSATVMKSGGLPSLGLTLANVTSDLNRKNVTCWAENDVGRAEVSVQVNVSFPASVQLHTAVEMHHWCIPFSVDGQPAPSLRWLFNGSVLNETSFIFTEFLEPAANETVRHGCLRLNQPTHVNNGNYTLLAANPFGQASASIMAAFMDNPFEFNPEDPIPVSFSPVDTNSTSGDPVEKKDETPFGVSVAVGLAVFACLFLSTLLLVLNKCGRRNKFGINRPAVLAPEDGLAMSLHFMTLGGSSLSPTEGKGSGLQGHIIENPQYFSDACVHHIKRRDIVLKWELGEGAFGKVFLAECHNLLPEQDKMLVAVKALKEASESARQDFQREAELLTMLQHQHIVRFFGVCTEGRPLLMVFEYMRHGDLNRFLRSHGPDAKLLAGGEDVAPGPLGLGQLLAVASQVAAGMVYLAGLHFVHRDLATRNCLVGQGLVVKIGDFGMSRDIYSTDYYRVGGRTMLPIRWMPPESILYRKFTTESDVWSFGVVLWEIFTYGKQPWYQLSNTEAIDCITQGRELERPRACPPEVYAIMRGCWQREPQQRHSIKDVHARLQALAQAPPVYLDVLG
Mitogen-activated protein kinase 1 (Homo sapiens), sequence (P28482 whole entry): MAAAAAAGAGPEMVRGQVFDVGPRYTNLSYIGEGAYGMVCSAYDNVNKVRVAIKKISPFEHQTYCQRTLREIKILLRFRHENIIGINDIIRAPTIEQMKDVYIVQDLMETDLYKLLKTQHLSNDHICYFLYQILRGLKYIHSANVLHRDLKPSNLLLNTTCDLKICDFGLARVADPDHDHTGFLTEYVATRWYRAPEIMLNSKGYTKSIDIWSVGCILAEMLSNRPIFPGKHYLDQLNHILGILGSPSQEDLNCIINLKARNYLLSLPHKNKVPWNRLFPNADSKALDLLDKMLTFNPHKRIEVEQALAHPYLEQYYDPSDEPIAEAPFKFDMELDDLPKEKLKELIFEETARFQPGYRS
Inhibitor of nuclear factor kappa-B kinase subunit beta (Homo sapiens), sequence (O14920 whole entry): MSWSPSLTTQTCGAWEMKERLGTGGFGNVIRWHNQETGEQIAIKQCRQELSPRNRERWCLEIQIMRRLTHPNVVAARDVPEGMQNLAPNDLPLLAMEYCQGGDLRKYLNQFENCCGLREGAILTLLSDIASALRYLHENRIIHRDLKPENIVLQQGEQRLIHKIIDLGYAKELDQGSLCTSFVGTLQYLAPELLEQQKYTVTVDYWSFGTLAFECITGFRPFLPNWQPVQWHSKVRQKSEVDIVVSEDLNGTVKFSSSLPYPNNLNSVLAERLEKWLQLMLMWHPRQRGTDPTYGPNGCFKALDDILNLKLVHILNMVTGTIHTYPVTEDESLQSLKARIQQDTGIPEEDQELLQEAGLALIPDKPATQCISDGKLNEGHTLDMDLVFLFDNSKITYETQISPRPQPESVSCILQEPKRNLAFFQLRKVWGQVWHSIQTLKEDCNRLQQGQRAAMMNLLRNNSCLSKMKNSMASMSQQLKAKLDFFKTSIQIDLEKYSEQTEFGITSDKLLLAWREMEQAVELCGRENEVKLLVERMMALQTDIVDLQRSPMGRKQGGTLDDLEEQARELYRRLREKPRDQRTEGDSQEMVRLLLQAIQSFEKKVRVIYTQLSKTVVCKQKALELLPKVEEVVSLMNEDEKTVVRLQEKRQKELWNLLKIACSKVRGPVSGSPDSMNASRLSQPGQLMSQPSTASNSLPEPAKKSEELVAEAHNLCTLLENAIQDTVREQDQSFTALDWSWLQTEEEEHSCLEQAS
Aurora kinase B (Homo sapiens), sequence (Q96GD4 whole entry): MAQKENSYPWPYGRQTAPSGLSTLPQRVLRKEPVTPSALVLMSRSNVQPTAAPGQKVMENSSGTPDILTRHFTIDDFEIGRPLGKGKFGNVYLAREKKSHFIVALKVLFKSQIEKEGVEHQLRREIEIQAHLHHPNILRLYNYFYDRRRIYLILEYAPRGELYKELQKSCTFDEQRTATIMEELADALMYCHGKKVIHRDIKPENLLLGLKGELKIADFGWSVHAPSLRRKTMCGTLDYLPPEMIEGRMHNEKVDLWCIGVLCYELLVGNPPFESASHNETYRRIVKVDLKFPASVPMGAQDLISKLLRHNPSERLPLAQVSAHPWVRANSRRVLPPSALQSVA

Cmax [1]: 26900 ng/mL
IC50 [2]: 62 nM
inhibition [5]: Dose-dependent-effect
AUC(0-t) at 48 h [15]: 59300 ng·h/mL
Activity [19]: 22%
Activity [20]: 22%
Activity [21]: 22%
inhibition [22]: inactive
inhibition [23]: inactive
inhibition [24]: inactive
inhibition [25]: inactive
inhibition [26]: inactive
inhibition [27]: inactive
inhibition [28]: inactive
inhibition [29]: inactive
inhibition [30]: inactive
inhibition [31]: inactive
inhibition [32]: inactive
inhibition [33]: inactive
inhibition [34]: inactive
inhibition [35]: inactive
IC50 [36]: 112 nM
IC50 [37]: 588 nM
IC50 [38]: 475 nM
SMILES: O=C(Nc1ccc(Oc2ccnc(NC(=O)N3CC(O)C3)c2)c(F)c1)c1cn(-c2cccnc2)nn1
IC50 [3]: > 30000 nM
IC50 at 72 h [4]: > 30000 nM
Activity [6]: 4.87%
Activity [7]: 3.57%
Activity [8]: Not active; Compound Barely Affect Flt3 Level
Activity [9]: 79.4%
Activity [10]: 4.21%
viability at 3 µM [11]: 50.6%
Activity [12]: 9.44%
Activity [13]: 0.26%
Activity [14]: 0.097%
Activity [16]: Active
Activity [17]: Non-toxic
Activity [18]: Non-toxic
